ChEMBL document CHEMBL4831545, “Hormesis Effect of Berberine against Klebsiella pneumoniae Is Mediated by Up-Regulation of the Efflux Pump KmrA” (J Nat Prod, 2021)
The source made the active and inactive calls. The calls are words filed in the database; no cut-off is given here.

Tests used:
[1] = system: Enterobacter cloacae; test: Hormesis activity against overnight compound-treated Enterobacter cloacae assessed as increase in antibiotic MIC by measuring tetracycline MIC at 3 ug/ml incubated for 12 hrs by OD600 based analysis (reference value: 8 ug/ml); type: ADME, organism-based; settings: in vivo, dose 3 µg/ml
[2] = system: Klebsiella pneumoniae; test: Hormesis activity against Klebsiella pneumoniae deficient in KmrA gene expression assessed as increase in antibiotic MIC by measuring chloramphenicol MIC at 3 ug/ml incubated for 12 hrs by OD600 based analysis (reference value: 6.25 ug/ml); type: ADME, organism-based; settings: in vivo, dose 3 µg/ml
[3] = system: Klebsiella pneumoniae; test: Hormesis activity against Klebsiella pneumoniae deficient in KmrA gene expression assessed as increase in antibiotic MIC by measuring ampicillin MIC at 3 ug/ml incubated for 12 hrs by OD600 based analysis (reference value: 12.5 ug/ml); type: ADME, organism-based; settings: in vivo, dose 3 µg/ml
[4] = system: Klebsiella pneumoniae; test: Hormesis activity against overnight compound-treated Klebsiella pneumoniae deficient in KmrA gene expression assessed as increase in antibiotic MIC by measuring cefotaxime MIC at 3 ug/ml incubated for 12 hrs by OD600 based analysis (reference value: 0.39625 ug/ml); type: ADME, organism-based; settings: in vivo, dose 3 µg/ml
[5] = system: Klebsiella pneumoniae; test: Hormesis activity against Klebsiella pneumoniae assessed as increase in antibiotic MIC by measuring atreonamMIC at 3 ug/ml incubated for 12 hrs by OD600 based analysis (reference value: 1.5625 ug/ml); type: ADME, organism-based; settings: in vivo, dose 3 µg/ml
[6] = system: Acinetobacter baumannii; test: Hormesis activity against Acinetobacter baumannii assessed as promotion of bacterial growth at 3 to 50 ug/ml measured for 24 hrs in presence of 80 to 120 ug/ml tetracycline by OD600 based analysis; type: organism-based; settings: in vivo, dose 3-50 µg/ml
[7] = system: Acinetobacter baumannii; test: Hormesis activity against overnight-compound treated Acinetobacter baumannii assessed as increase in antibiotic MIC by measuring atreonamMIC at 3 ug/ml incubated for 12 hrs by OD600 based analysis (reference value: 6.25 ug/ml); type: ADME, organism-based; settings: in vivo, dose 3 µg/ml
[8] = system: Acinetobacter baumannii; test: Hormesis activity against Acinetobacter baumannii assessed as increase in antibiotic MIC by measuring meropenem MIC at 3 ug/ml incubated for 12 hrs by OD600 based analysis (reference value: 0.625 ug/ml); type: ADME, organism-based; settings: in vivo, dose 3 µg/ml
[9] = system: Klebsiella pneumoniae; test: Hormesis activity against overnight compound-treated Klebsiella pneumoniae assessed as increase in antibiotic MIC by measuring chloramphenicol MIC at 3 ug/ml incubated for 12 hrs by OD600 based analysis (reference value: 6.25 ug/ml); type: ADME, organism-based; settings: in vivo, dose 3 µg/ml
[10] = system: Enterobacter cloacae; test: Hormesis activity against overnight compound-treated Enterobacter cloacae assessed as increase in antibiotic MIC by measuring meropenem MIC at 3 ug/ml incubated for 12 hrs by OD600 based analysis (reference value: 0.1953 ug/ml); type: ADME, organism-based; settings: in vivo, dose 3 µg/ml
[11] = system: Acinetobacter baumannii; test: Hormesis activity against overnight-compound treated Acinetobacter baumannii assessed as increase in antibiotic MIC by measuring ciprofloxacin MIC at 3 ug/ml incubated for 12 hrs by OD600 based analysis (reference value: 0.3125 ug/ml); type: ADME, organism-based; settings: in vivo, dose 3 µg/ml
[12] = Upregulation of KmrA promoter activity in Klebsiella pneumoniae assessed as increase in beta-galactosidase activity at 6 to 50 ug/ml by LacZ based OD600 analysis; type: ADME; settings: dose 6-50 µg/ml
[13] = system: Klebsiella pneumoniae; test: Hormesis activity against Klebsiella pneumoniae deficient in KmrA gene expression assessed as increase in antibiotic MIC by measuring ciprofloxacin MIC at 3 ug/ml incubated for 12 hrs by OD600 based analysis (reference value: 0.0390625 ug/ml); type: ADME, organism-based; settings: in vivo, dose 3 µg/ml
[14] = system: Klebsiella pneumoniae; test: Hormesis activity against Klebsiella pneumoniae deficient in KmrA gene expression assessed as increase in antibiotic MIC by measuring cefotaxime MIC at 3 ug/ml incubated for 12 hrs by OD600 based analysis (reference value: 0.39625 ug/ml); type: ADME, organism-based; settings: in vivo, dose 3 µg/ml
[15] = system: Enterobacter cloacae; test: Hormesis activity against overnight compound-treated Enterobacter cloacae assessed as increase in antibiotic MIC by measuring chloramphenicol MIC at 3 ug/ml incubated for 12 hrs by OD600 based analysis (reference value: 3.125 ug/ml); type: ADME, organism-based; settings: in vivo, dose 3 µg/ml
[16] = system: Klebsiella pneumoniae; test: Hormesis activity against Klebsiella pneumonia assessed as inhibition of bacterial growth at 12 ug/ml measured after 24 hrs by OD600 based analysis; type: functional, organism-based; settings: dose 12.0 µg/ml
[17] = system: Klebsiella pneumoniae; test: Hormesis activity against Klebsiella pneumonia assessed as inhibition of bacterial growth at 25 to 50 ug/ml measured for 24 hrs in presence of 2 ug/ml tetracycline by OD600 based analysis; type: functional, organism-based; settings: dose 25-50 µg/ml
[18] = system: Klebsiella pneumoniae; test: Hormesis activity against overnight compound-treated Klebsiella pneumoniae deficient in KmrA gene expression assessed as increase in antibiotic MIC by measuring tetracycline MIC at 3 ug/ml incubated for 12 hrs by OD600 based analysis (reference value: 6 ug/ml); type: ADME, organism-based; settings: in vivo, dose 3 µg/ml
[19] = system: Enterobacter cloacae; test: Hormesis activity against Enterobacter cloacae assessed as increase in antibiotic MIC by measuring hygromycinMIC at 3 ug/ml incubated for 12 hrs by OD600 based analysis (reference value: 25 ug/ml); type: ADME, organism-based; settings: in vivo, dose 3 µg/ml
[20] = system: Acinetobacter baumannii; test: Hormesis activity against overnight-compound treated Acinetobacter baumannii assessed as increase in antibiotic MIC by measuring meropenem MIC at 3 ug/ml incubated for 12 hrs by OD600 based analysis (reference value: 0.625 ug/ml); type: ADME, organism-based; settings: in vivo, dose 3 µg/ml
[21] = system: Klebsiella pneumoniae; test: Hormesis activity against Klebsiella pneumoniae assessed as increase in antibiotic MIC by measuring ampicillin MIC at 3 ug/ml incubated for 12 hrs by OD600 based analysis (reference value: 12.5 ug/ml); type: ADME, organism-based; settings: in vivo, dose 3 µg/ml
[22] = system: Acinetobacter baumannii; test: Hormesis activity against overnight-compound treated Acinetobacter baumannii assessed as increase in antibiotic MIC by measuring ampicillin MIC at 3 ug/ml incubated for 12 hrs by OD600 based analysis (reference value: 100 ug/ml); type: ADME, organism-based; settings: in vivo, dose 3 µg/ml
[23] = system: Enterobacter cloacae; test: Hormesis activity against Enterobacter cloacae assessed as increase in antibiotic MIC by measuring cefotaxime MIC at 3 ug/ml incubated for 12 hrs by OD600 based analysis (reference value: 1.5625 ug/ml); type: ADME, organism-based; settings: in vivo, dose 3 µg/ml
[24] = system: Enterobacter cloacae; test: Hormesis activity against Enterobacter cloacae assessed as increase in antibiotic MIC by measuring rifampicin MIC at 3 ug/ml incubated for 12 hrs by OD600 based analysis (reference value: 25 ug/ml); type: ADME, organism-based; settings: in vivo, dose 3 µg/ml

`COc1ccc2cc3[n+](cc2c1OC)CCc1cc2c(cc1-3)OCO2` [BERBERINE] showed an MIC [1] of 16 µg/mL, an MIC [2] of 6.25 µg/mL and an MIC [3] of 12.5 µg/mL. The MIC [4] was 0.3962 µg/mL, the MIC [5] was 1.5625 µg/mL and the Activity [6] was “Toxic”. The MIC [7] was 6.25 µg/mL, the MIC [8] was 0.625 µg/mL and the MIC [9] was 6.25 µg/mL. For the same compound, the MIC [10] was 0.1953 µg/mL, the MIC [11] was 0.625 µg/mL and the Activity [12] was “Toxic”. The MIC [13] was 0.03906 µg/mL, the MIC [14] was 0.3962 µg/mL and the MIC [15] was 3.125 µg/mL. The Activity [16] was “Active”, the Activity [17] was “Active” and the MIC [18] was 6 µg/mL. For the same compound, the MIC [19] was 25 µg/mL, the MIC [20] was 0.625 µg/mL and the MIC [21] was 12.5 µg/mL. It also gave an MIC [22] of 200 µg/mL, an MIC [23] of 3.125 µg/mL and an MIC [24] of 25 µg/mL.
